Values after ≈ are worked out from the molar mass of the structure shown. Values joined by “and” are separate entries in the source; they are usually repeats but may differ in a detail not shown here. Equal entries are not always repeated. Where two headings read alike, the source gives them in different places. Marks after values point to notes of the source that are not given here. Blank lines part the entries; values can stand above or below the molecule they belong to.
How the values were obtained:
in vitro = details: PAMPA, pH 7.4
Experimental: The test samples (0.05 mM test article in pH 7.4 buffer with 0.5% DMSO) were added in the donor compartment and were stirred using the Gutbox technology (Pion Inc.) to reduce the aqueous boundary layer. The test article concentrations in the donor and acceptor compartments were measured using a UV plate reader (Nano Quant, Infinite 200 PRO, Tecan Inc., Männedorf, Switzerland).

in vivo [1] = details: male, C57BL/6, mouse, in vivo
Experimental: The in-life study (Animal Study Protocol Number: NIH ORS-51) was conducted at the NIH Animal Facility by the Division of Veterinary Resources (DVR, Bethesda, MD). In this study, 25–35 g male C57BL/6 mice (Charles River Laboratories, Frederick, MD) were used. For the IV groups, 66 mice (33 mice per dosing group, 3 mice per timepoint) were used for a single bolus IV dose of 3 or 10 mg/kg of PDN via tail vein injection. […] The IV and PO doses were selected to obtain a complete concentration profile in plasma and tissues, based on a preliminary study. Animals were not fasted in this study. […] All dosing solutions were freshly prepared on the day of dosing. At designated time points, blood samples were collected, and mice were euthanized with CO2 in accordance with NIH ARAC Guidelines after blood collection. The death was ensured by cervical dislocation or transthoracic puncture. Lung, liver, adipose, brain, heart, small intestine, kidney, skeletal muscle, and spleen samples were obtained from mice. […] Tissue samples were rinsed with cold saline, dried on filtrate paper, weighed, and snap frozen by placing into dry ice after collection. All samples were stored at −80°C until the analysis. All blood samples were collected in K2EDTA tubes and centrifuged at 3000 g for 10 min at 4°C to obtain plasma. Plasma samples were transferred to tubes preloaded with NaF (final concentration at 5 mM in 200 µL plasma) and stored at −80°C until analysis.
(§1) For fat tissue, an additional 3-fold volume of acetonitrile was added to the water homogenate and was vortexed in a shaker for another 30 min.
(§2) A 10 μ aliquot of samples, blank controls (blank plasma or tissue homogenates), quality controls (QC), and standards were added into 200 μ acetonitrile solution with 100 ng/mL tolbutamide (internal standard, IS). All samples were then thoroughly shaken for 5 min to precipitate proteins. The samples were centrifuged at 3000 rpm and 4°C for 30 min. The supernatant was injected for UPLC-MS/MS analysis.
(§3) The mobile phase consisted of 0.1% formic acid in water (A) and 0.1% formic acid in acetonitrile (B), the flow rate was 600 μL/min. […] All analyses were carried out using a Waters Acquity I-Class UPLC interfaced with a Waters Xevo TQ-S mass spectrometer. The mass spectrometer multiple reaction monitoring (MRM) experiment was operated with an ESI source at negative mode with spray voltage of 1 kV, and temperature of 600°C. Both Q1 and Q3 were set at unit resolution. […] The correlation coefficients of the calibration curves were all greater than 0.99. […] The linear range, precision and accuracy of QCs in various tissues and plasma are shown in Supplementary Table S1 and Supplementary Table S2.
(§4) The area under the concentration vs. time curve (AUC) was calculated using the linear trapezoidal method. The terminal rate constant (λ) was obtained from the slope of at least three data points of the apparent terminal phase of the log linear concentration vs. time curve. AUC0–∞ was estimated as the sum of the AUC0–t (where t is the time of the last measurable concentration) and Ct/λ. […] Bioavailability (F) was calculated using ratios of dose-normalized AUC of PO and IV administration.

in vivo [2] = details: hamster, in vivo
Experimental: For the IV group, a single bolus IV dose of 3 mg/kg of PDN was administered to 24 hamsters (3 hamsters per time point). For the PO group, a dose of 30 mg/kg of PDN was administered via oral gavage to 21 hamsters (3 hamsters per time point). The formulation used for both IV and PO was 20% HP-β-CD in water (0.6 mg/mL PDN for IV and 3 mg/mL for PO). All dosing solutions were freshly prepared on the day of dosing. […] After collection, tissues were weighed and frozen. All blood samples were centrifuged at 4°C to obtain plasma. Plasma samples were transferred to tubes preloaded with NaF (final concentration at 5 mM in 200 µL plasma) and stored at −80°C until analysis.
as §1, §2, §3, §4

[3] = PBPK model (GastroPlus): simulation and model parameters incl. permeability surface product and scaled metabolic kinetics, mouse; details: conversion to Others
Experimental: (§5) CL in vitro,app expressed as mL/min/mg microsomes were scaled to the predicted CLintrinsic using scaling factor (SF), microsome level and liver weight as indicated below: CLintrinsic=CLin vitro,app×SF×liver weight×microsome level per gram liver
(§6) All modeling and simulation were carried out using GastroPlus version 9.5 (Simulations Plus Inc., CA). Physiochemical parameters including blood-to-plasma ratio (Rbp), pKa, and logP were predicted by ADMET predictor (Simulations Plus Inc., CA). Physiologies of all species, including organ weights, volumes, tissue compositions, and blood perfusion rates, were generated by the program’s internal module. Tissue intracellular unbound fractions were generated by GastroPlus based on predicted or experimentally determined physiochemical and chemical-biological parameters including pKa, logP, plasma unbound fractions (Fup), Rbp, solubility, and PAMPA permeability. The PBPK model structure is illustrated in Figure 2 and its parameters are summarized in Supplementary Tables S3–6. The default absorption and dissolution model was applied and effective intestine permeability was predicted by a built-in correlation from the experimental PAMPA permeability result. Parameters including partition coefficients in tissue (Kp), CLintrinsic, and permeability surface area product (PStc) were estimated by fitting the model to experimental data using the optimization module in GastroPlus with objective function weights at 1/(y + ŷ)^2, where y is the observed value and ŷ is the predicted value.
Model parameter estimation of all plasma-tissue partition coefficients (Kp) was performed simultaneously using both the IV and PO datasets. […] The experimentally determined pharmacokinetic profiles were compared with the model simulations.

[4] = PBPK model (GastroPlus): simulation and model parameters incl. permeability surface product and scaled metabolic kinetics, hamster; details: conversion to Others
Experimental: as §5, §6
Experimental measurements of hamster plasma pharmacokinetics and lung concentrations were used in the model validation.

[5] = PBPK model (GastroPlus): simulation and model parameters incl. permeability surface product and scaled metabolic kinetics, human; details: conversion to Others
[6] = mouse, pH 7.4
Experimental: (§7) The incubation was carried out at 37°C for 15, 30, and 60 min. The reaction in plasma or liver microsomes was quenched by adding 200 μL of cold acetonitrile (containing 100 ng/mL tolbutamide as internal standard).
(§8) The mc was the microsome concentration used in the incubation (0.5 mg/mL). The substrate disappearance half-life (t1/2) was estimated by regression analysis of the semi-logarithmic (ln Conc vs. time) plots. […] The Vmax, in vitro,app, PDN-total and Km for PDN depletion in liver microsomes were estimated by the Michaelis-Menten model using GraphPad Prism version 8.

[7] = hamster, pH 7.4
Experimental: as §7, §8

[8] = human, pH 7.4
Experimental: as §7, §8

[9] = cited from earlier work
[10] = rat, in vivo, cited from earlier work
[11] = dog, in vivo; cited from earlier work
[12] = human, in vivo, po, cited from earlier work
[13] = cited from earlier work; remark: listed apart in the source
[14] = human; cited from earlier work
UGT enzymes = details: cited from earlier work
[15] = rats, acute toxicity test; ref Andrews et al., 1982; cited from earlier work
physchem = details: pH 7.4, aqueous buffer, kinetic from dmso stock
Experimental: Samples were incubated at room temperature for 6 h and vacuum-filtered using Tecan Te-Vac to remove any precipitates. The concentration of the compound in the filtrate was measured via UV absorbance (λ: 250–498 nm). […] All compounds were tested in duplicates. The kinetic solubility (µg/mL) of compounds was calculated using the µSOL Evolution software.

[16] = male, LVG golden Syrian, po, 30 mg/kg
[17] = in vivo, predicted from in vitro liver parameters

Papp at 0.05 mM (in vitro): < 1 ×10⁻⁶ cm/s
Compound: CNC(=C[N+](=O)[O-])NCCSCc1ccc(CN(C)C)o1 [Ranitidine, reference compound]

Compound: O=C(Nc1ccc([N+](=O)[O-])cc1Cl)c1cc(Cl)ccc1O [Nc, Niclosamide, reference compound]
AUC(0-inf) (in vivo [1]; iv, 3 mg/kg): 577 ng·h/mL
AUC(0-inf) (in vivo [1]; iv, 10 mg/kg): 1390 ng·h/mL
AUC(0-inf) (in vivo [1]; po, 10 mg/kg): 1610 ng·h/mL
Cmax (in vivo [1]; po, 10 mg/kg): 346 ng/mL
dose-normalized AUC0-∞ of Nc (in vivo [1]; po, 10 mg/kg): 216 (h*ng/mL)/(mg/kg)
AUC0-∞ Observed (in vivo [2]; iv, 3 mg/kg): 1030 (98) h*ng/g
AUC0-∞ Observed (in vivo [2]; po, 30 mg/kg): 5020 (294) h*ng/g
AUC(0-inf) (in vivo [2]; male, LVG golden Syrian, iv, 3 mg/kg): 203 ng·h/mL
AUC(0-inf) (in vivo [2]; [16]): 1890 ng·h/mL
Cmax (in vivo [2]; [16]): 1170 ng/g and 623 ng/mL
dose normalized plasma AUC0-∞ of Nc (in vivo [2]; [16]): 88 (h*ng/mL)/(mg/kg)
Tmax (in vivo [2]; male, LVG golden Syrian, po, 30 mg/kg, Tmax Observed): 1 h
half-life (in vivo [2]; male, LVG golden Syrian, po, 30 mg/kg, t1/2 Observed): ~1.9 h
Liver Vmax ([3]; in vivo (scaled)): 0.0949 mg/s/mg microsomes
Gut Vmax [3, 17]: 0.0408 mg/s/mg microsomes
Liver Vmax ([4]; in vivo (scaled)): 0.1463 mg/s/mg microsomes
Gut Vmax [4, 17]: 0.0629 mg/s/mg microsomes
Liver Vmax ([5]; in vivo (scaled)): 0.0738 mg/s/mg microsomes
Gut Vmax [5, 17]: 0.0317 mg/s/mg microsomes
Liver Vmax [6]: 0.07474 mg/s/mg microsomes
Liver Vmax [7]: 0.1152 mg/s/mg microsomes
Liver Vmax [8]: 0.0581 mg/s/mg microsomes
PAMPA permeability [9]: <1 ^b 10^−6 cm/s
oral bioavailability ([10]; po): 5.5%
volume of distribution [10]: less than 0.4 L/kg
oral bioavailability [11]: 0.54%
plasma Cmax ([12]; 500 mg): 35.7 to 182 ng/mL
serum maximal concentration (Cmax), Nc equivalent ([12]; 2000 mg): 250 to 6000 ng/mL
median plasma Cmax [12]: 665 ng/mL
Fup (unbound fraction in plasma) [13]: 0.14% (rodent) ^b
plasma protein binding [13]: > 99.8%
Fup (unbound fraction in plasma) [14]: 0.16% (human) ^b
Km (UGT enzymes): 0.09 to 1.67 µM
UGT-mediated hepatic CL in vitro,app (UGT enzymes; mouse): 0.18-0.21 mL/min/mg microsomes
oral LD50 [15]: > 5000 mg/kg

Compound: CCCSc1ccc2nc(NC(=O)OC)[nH]c2c1 [Albendazole, reference compound]
solubility (physchem): < 1 µg/mL

Compound: Nc1ccc(/N=N/c2ccccc2)c(N)n1 [Phenazolpyridine, reference compound]
solubility (physchem): 26 µg/mL (≈ 122 µM)

Reference: PMC10126473 (Frontiers in Pharmacology, 2023)
